Test results: ChEMBL document CHEMBL4507291 (2021)

Assays:
[1] = test system: Leucine-rich repeat serine/threonine-protein kinase 2 (Homo sapiens), Q5S007 [G2019S]; conditions: Compound concentration 1000.0 nM
[2] = target: 5-hydroxytryptamine receptor 7 (Homo sapiens) (UniProt P34969); conditions: Compound concentration 10.0 uM
[3] = target: Serine/threonine-protein kinase N1 (Homo sapiens) (UniProt Q16512); test: PKN1 (PRK1) Kinase screen; conditions: Compound concentration 1.0 uM
[4] = target: T1, Inhibitor of nuclear factor kappa-B kinase subunit epsilon (Homo sapiens) (UniProt Q14164); test: IKBKE (IKK epsilon) Kinase screen; conditions: Compound concentration 1.0 uM
T1 sequence (whole entry): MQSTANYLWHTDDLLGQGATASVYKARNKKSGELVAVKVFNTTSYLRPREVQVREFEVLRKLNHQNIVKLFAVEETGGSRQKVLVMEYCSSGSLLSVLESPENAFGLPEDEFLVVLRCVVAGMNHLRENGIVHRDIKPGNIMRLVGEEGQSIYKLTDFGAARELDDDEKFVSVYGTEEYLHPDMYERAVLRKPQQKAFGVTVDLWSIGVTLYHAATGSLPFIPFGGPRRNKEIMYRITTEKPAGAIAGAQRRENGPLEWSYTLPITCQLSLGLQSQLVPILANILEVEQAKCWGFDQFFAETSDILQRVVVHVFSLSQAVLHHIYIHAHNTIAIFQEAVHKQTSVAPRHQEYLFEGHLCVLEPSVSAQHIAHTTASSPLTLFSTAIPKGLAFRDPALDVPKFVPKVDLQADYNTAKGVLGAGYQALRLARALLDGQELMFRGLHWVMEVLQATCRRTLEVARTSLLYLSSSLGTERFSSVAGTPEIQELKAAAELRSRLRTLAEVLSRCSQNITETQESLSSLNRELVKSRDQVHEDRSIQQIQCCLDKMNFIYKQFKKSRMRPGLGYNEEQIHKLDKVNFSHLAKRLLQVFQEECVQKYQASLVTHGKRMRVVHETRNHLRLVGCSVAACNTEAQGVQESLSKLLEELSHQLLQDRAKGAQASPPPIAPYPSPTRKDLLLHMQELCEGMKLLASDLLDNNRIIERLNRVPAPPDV

[5] = target: T2, MAP kinase-activated protein kinase 5 (Homo sapiens) (UniProt Q8IW41); test: MAPKAPK5 (PRAK) Kinase screen; conditions: Compound concentration 1.0 uM
T2 sequence (whole entry): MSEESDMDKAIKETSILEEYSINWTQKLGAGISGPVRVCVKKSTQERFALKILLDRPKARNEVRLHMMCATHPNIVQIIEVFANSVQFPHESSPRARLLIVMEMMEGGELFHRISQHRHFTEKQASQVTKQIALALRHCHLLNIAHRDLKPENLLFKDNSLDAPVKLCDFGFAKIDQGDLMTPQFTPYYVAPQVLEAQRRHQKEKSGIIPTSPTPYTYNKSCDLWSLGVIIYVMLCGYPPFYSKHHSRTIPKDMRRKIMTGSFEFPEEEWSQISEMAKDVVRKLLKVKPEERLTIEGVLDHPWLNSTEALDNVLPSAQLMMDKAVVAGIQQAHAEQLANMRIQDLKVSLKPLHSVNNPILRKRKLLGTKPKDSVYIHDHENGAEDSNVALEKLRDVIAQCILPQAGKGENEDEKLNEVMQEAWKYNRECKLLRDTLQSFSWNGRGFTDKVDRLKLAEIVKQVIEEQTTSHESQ

[6] = target: T3, Serine/threonine-protein kinase Sgk3 (Homo sapiens) (UniProt Q96BR1); test: SGKL (SGK3) Kinase screen; conditions: Compound concentration 1.0 uM
T3 sequence (whole entry): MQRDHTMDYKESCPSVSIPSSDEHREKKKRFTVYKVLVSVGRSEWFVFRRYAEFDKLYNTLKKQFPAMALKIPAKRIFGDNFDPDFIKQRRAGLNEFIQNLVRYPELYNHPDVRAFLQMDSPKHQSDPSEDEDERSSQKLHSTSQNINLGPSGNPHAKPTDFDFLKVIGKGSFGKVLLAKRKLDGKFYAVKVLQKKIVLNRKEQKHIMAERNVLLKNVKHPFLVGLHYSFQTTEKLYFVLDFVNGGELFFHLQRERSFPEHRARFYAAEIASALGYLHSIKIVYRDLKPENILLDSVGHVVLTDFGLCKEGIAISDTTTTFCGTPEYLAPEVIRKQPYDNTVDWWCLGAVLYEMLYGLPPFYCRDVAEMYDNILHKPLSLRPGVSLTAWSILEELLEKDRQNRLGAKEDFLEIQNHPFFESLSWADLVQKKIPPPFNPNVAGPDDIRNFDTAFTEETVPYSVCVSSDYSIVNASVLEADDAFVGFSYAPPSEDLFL

[7] = target: Receptor-interacting serine/threonine-protein kinase 2 (Homo sapiens) (UniProt O43353); test: RIPK2 Kinase screen; conditions: Compound concentration 1.0 uM
Chain of Receptor-interacting serine/threonine-protein kinase 2 (Homo sapiens) (O43353 whole entry): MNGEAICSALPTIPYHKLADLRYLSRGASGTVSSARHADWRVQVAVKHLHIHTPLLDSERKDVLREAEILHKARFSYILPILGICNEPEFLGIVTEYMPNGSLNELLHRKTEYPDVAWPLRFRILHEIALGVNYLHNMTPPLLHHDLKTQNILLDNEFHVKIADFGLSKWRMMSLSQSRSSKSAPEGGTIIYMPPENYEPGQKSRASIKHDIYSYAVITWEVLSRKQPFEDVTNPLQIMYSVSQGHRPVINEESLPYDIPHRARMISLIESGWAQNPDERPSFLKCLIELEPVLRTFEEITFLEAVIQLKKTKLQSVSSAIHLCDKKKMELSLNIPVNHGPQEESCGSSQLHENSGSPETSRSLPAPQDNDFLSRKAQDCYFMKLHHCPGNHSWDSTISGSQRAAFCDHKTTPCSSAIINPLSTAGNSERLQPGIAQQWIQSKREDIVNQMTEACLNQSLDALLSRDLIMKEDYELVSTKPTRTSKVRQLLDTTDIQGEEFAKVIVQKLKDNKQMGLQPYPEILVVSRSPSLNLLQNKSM

[8] = target: Serine/threonine-protein kinase 24 (Homo sapiens) (UniProt Q9Y6E0); test: STK24 (MST3) Kinase screen; conditions: Compound concentration 1.0 uM
Chain of Serine/threonine-protein kinase 24 (Homo sapiens) (Q9Y6E0 whole entry, looked up): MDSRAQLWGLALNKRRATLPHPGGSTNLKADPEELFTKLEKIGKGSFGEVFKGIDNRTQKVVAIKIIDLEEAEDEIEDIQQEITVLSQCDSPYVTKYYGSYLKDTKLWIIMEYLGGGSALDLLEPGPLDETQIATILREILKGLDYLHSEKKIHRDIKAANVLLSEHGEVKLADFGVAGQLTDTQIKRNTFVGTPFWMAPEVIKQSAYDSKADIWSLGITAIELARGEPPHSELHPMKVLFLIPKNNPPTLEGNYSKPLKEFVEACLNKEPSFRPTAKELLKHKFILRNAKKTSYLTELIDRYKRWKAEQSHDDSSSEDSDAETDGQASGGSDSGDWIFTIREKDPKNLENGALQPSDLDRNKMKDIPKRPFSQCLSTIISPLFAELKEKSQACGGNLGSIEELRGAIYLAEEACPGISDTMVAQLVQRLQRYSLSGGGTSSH

[9] = target: MAP kinase-activated protein kinase 3 (Homo sapiens) (UniProt Q16644); test: MAPKAPK3 Kinase screen; conditions: Compound concentration 1.0 uM
Chain of MAP kinase-activated protein kinase 3 (Homo sapiens) (Q16644 whole entry, looked up): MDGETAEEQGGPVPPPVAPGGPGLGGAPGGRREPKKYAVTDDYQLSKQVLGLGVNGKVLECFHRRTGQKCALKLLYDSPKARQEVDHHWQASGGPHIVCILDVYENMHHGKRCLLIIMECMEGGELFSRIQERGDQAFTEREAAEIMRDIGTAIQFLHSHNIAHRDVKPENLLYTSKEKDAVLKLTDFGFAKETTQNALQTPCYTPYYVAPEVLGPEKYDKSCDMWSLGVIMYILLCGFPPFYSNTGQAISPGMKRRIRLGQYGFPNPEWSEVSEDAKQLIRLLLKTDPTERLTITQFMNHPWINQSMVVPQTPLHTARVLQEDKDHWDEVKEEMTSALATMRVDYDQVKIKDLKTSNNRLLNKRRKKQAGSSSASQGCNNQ

[10] = target: Cyclin-dependent kinase 5/CDK5 activator 1 (Homo sapiens) (UniProt Q00535+Q15078); test: CDK5/p25 Kinase screen; assay type: protein-complex assay; conditions: Compound concentration 1.0 uM
[11] = target: Serine/threonine-protein kinase pim-2 (Homo sapiens) (UniProt Q9P1W9); test: PIM2 Kinase screen; conditions: Compound concentration 1.0 uM
Chain of Serine/threonine-protein kinase pim-2 (Homo sapiens) (Q9P1W9 whole entry, looked up): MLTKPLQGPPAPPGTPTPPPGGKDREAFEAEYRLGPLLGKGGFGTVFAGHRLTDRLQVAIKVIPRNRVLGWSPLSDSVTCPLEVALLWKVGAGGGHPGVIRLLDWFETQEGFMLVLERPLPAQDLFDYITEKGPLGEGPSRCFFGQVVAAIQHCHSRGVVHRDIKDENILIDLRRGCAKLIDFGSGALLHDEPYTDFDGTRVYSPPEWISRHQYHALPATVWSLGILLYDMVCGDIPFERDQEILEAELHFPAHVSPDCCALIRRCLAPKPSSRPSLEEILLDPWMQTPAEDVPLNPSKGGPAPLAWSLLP

[12] = target: Insulin-like growth factor 1 receptor (Homo sapiens) (UniProt P08069); test: IGF1R Kinase screen; conditions: Compound concentration 1.0 uM
[13] = target: Melanocortin receptor 5 (Homo sapiens) (UniProt P33032); test: Inhibition of Melanocortin MC5 at 10 µM in the Eurofins-Panlabs radioligand binding assay (Eurofins_assay_251400); parameters: ligand concentration 0.035 nM; conditions: Compound concentration 10.0 uM
Chain of Melanocortin receptor 5 (Homo sapiens) (P33032 whole entry): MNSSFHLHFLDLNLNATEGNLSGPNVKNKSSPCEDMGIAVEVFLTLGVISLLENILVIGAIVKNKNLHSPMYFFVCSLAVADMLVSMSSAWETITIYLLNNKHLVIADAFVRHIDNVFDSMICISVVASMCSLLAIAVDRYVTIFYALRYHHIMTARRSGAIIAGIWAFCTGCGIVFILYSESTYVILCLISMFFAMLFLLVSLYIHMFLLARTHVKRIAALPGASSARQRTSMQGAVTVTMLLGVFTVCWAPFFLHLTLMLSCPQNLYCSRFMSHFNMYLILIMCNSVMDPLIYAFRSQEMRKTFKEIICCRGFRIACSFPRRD

[14] = target: 3-phosphoinositide-dependent protein kinase 1 (PDPK1) (Homo sapiens) (UniProt O15530); test: PDK1 Direct Kinase screen; conditions: Compound concentration 1.0 uM
Chain of 3-phosphoinositide-dependent protein kinase 1 (PDPK1) (Homo sapiens) (O15530 whole entry, looked up): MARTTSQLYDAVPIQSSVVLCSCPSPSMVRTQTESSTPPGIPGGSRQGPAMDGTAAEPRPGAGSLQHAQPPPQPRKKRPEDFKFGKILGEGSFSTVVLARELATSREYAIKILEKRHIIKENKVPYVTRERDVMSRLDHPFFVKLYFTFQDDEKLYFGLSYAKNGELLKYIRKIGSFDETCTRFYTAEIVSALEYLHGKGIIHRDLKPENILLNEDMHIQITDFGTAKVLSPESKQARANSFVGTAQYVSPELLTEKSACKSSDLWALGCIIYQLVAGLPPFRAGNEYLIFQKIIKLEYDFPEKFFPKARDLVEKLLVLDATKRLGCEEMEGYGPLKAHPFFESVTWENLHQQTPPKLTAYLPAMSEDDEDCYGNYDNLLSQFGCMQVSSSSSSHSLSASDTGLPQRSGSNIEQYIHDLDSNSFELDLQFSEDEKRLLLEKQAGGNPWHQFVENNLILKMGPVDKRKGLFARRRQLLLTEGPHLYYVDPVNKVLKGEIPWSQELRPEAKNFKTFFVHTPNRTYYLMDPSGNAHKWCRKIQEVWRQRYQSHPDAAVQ

[15] = target: Endothelin-1 receptor (Homo sapiens) (UniProt P25101); conditions: Compound concentration 10.0 uM
Chain of Endothelin-1 receptor (Homo sapiens) (P25101 whole entry): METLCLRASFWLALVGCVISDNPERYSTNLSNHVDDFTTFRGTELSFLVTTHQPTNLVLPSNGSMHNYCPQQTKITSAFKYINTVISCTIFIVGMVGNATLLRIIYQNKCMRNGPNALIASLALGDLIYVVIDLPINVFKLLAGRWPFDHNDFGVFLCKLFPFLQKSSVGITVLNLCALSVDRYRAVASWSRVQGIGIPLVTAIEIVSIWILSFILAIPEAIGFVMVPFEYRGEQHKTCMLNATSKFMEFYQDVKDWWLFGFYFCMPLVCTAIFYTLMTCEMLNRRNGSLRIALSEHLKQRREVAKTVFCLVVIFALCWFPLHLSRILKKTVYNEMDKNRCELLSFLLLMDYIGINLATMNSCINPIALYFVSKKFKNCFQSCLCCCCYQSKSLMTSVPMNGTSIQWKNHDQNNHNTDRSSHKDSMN

[16] = target: Tyrosine-protein kinase ABL1 (Homo sapiens) (UniProt P00519); test: ABL1 Kinase screen; conditions: Compound concentration 1.0 uM
[17] = target: Sodium-dependent dopamine transporter (Homo sapiens) (UniProt Q01959); conditions: Compound concentration 10.0 uM
[18] = target: Calcium/calmodulin-dependent protein kinase type II subunit delta (Homo sapiens) (UniProt Q13557); test: CAMK2D (CaMKII delta) Kinase screen; conditions: Compound concentration 1.0 uM
Chain of Calcium/calmodulin-dependent protein kinase type II subunit delta (Homo sapiens) (Q13557 whole entry): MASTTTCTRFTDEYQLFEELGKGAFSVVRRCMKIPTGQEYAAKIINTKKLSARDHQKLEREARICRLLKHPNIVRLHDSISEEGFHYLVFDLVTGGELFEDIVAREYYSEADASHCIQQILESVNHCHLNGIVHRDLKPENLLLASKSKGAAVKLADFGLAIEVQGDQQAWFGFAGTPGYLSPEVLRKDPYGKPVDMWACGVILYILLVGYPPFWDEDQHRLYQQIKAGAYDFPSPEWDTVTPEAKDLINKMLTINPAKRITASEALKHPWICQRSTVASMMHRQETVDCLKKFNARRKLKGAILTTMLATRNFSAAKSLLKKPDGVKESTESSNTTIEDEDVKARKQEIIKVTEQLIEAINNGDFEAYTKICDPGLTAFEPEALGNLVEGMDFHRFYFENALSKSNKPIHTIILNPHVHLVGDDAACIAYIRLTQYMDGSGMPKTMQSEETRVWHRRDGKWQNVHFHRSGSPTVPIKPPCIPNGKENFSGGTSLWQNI

[19] = target: Phosphodiesterase 3 (Homo sapiens) (UniProt Q14432+Q13370); test: Inhibition of Phosphodiesterase PDE3 at compound concentration of 10.0 uM in the Eurofins-Panlabs enzyme assay (Eurofins_assay_152000); assay type: protein assay; parameters: substrate with concentration 1.01 uM [3H] cAMP + cAMP, incubation time 20 min, incubation temperature 25 C; conditions: Compound concentration 10.0 uM
[20] = target: Phosphatidylinositol 3-kinase catalytic subunit type 3 (Homo sapiens) (UniProt Q8NEB9); test: PIK3C3 (hVPS34) Kinase screen; conditions: Compound concentration 1.0 uM
[21] = test system: Hepatocyte growth factor receptor (Homo sapiens), P08581 [M1250T]; test: MET M1250T Kinase screen; conditions: Compound concentration 1.0 uM
[22] = target: Ribosomal protein S6 kinase alpha-6 (Homo sapiens) (UniProt Q9UK32); test: RPS6KA6 (RSK4) Kinase screen; conditions: Compound concentration 1.0 uM

Chain of Serine/threonine-protein kinase N1 (Homo sapiens) (Q16512 2-942 limits assumed): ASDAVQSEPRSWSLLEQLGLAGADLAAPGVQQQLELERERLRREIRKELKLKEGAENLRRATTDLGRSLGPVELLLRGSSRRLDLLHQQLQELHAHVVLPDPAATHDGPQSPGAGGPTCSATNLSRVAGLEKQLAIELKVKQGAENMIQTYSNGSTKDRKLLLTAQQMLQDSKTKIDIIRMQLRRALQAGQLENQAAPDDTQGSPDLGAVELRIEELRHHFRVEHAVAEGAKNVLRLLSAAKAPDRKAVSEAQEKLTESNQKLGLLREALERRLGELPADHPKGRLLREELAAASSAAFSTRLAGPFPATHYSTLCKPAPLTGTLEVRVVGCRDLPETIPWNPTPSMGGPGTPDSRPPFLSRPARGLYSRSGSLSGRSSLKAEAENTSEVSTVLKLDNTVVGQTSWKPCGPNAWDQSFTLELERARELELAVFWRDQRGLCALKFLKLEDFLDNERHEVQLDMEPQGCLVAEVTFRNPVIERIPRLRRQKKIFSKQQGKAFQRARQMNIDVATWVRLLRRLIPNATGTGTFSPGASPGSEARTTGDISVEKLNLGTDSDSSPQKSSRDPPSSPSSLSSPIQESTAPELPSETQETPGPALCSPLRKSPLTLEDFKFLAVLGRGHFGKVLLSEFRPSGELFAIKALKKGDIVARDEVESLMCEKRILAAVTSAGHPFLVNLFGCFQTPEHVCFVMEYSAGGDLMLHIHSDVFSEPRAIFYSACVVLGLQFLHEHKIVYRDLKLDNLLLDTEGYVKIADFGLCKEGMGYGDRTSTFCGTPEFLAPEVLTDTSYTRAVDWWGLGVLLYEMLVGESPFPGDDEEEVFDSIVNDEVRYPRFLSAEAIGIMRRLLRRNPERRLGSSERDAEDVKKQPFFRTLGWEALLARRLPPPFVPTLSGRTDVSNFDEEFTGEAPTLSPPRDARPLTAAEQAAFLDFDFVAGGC
Chain of 5-hydroxytryptamine receptor 7 (Homo sapiens) (P34969 whole entry): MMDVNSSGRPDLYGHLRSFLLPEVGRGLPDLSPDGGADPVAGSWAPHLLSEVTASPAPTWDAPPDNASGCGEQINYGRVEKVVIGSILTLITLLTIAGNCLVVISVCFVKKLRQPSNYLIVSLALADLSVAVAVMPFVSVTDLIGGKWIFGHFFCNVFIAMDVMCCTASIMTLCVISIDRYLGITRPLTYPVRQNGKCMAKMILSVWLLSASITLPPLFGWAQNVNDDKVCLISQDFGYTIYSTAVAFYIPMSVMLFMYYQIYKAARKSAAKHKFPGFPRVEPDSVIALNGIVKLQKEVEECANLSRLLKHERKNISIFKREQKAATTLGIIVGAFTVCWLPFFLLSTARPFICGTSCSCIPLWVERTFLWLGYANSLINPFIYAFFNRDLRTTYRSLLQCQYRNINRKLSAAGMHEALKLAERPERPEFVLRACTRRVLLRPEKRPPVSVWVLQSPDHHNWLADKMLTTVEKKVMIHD

Q: How did the residual activity [1] turn out when `C[C@@H]1CN(c2cc(-c3nn(C)c4ccc(OC5(C)CC5)cc34)ncn2)C[C@H](C)O1` [MLi-2-NC] was run?
A: The residual activity was 36%.

Q: And the inhibition [2]?
A: The inhibition was -0.4%.

Q: With `C[C@@H]1CN(c2cc(-c3n[nH]c4ccc(OC5(C)CC5)cc34)ncn2)C[C@H](C)O1` [MLi-2] as the molecule, how does the inhibition [3] read?
A: The inhibition was 1.46%.

Q: What about the inhibition [4] of the same molecule?
A: The inhibition was 1.77%.

Q: And the inhibition [5]?
A: Its inhibition is 14.2%.

Q: What about the inhibition [6] of the same molecule?
A: Its inhibition is 0.213%.

Q: What about the inhibition [7] of the same molecule?
A: The inhibition was -0.0326%.

Q: And the inhibition [8]?
A: Its inhibition is 7.34%.

Q: And the inhibition [9]?
A: The inhibition was 3.73%.

Q: What about the inhibition [10] of the same molecule?
A: The inhibition was -2.71%.

Q: What about the inhibition [11] of the same molecule?
A: The inhibition was -1.94%.

Q: And the inhibition [12]?
A: The inhibition was 1.96%.

Q: What about the inhibition [13] of the same molecule?
A: Its inhibition is -3%.

Q: What about the inhibition [14] of the same molecule?
A: Its inhibition is -2.36%.

Q: And the inhibition [15]?
A: Its inhibition is 23%.

Q: And the inhibition [16]?
A: Its inhibition is 1.09%.

Q: And the inhibition [17]?
A: The inhibition was 16%.

Q: And the inhibition [18]?
A: The inhibition was 23.9%.

Q: And the inhibition [19]?
A: Its inhibition is 21%.

Q: And the inhibition [20]?
A: The inhibition was 19.4%.

Q: And the inhibition [21]?
A: Its inhibition is 2.2%.

Q: And the inhibition [22]?
A: The inhibition was 3.23%.
